Where two headings read alike, the source gives them in different places.
What was measured:
[1] = test system: giant salvinia (Salvinia molesta); assay: Spray of salviniside II and other isolates/fractions on giant salvinia plants; format: in vivo; set-up: key to activity class against giant salvinia: inactive: not able to inhibit the growth of giant salvinia at all; active: able to fully inhibit the growth of giant salvinia at high concentrations; very active: able to fully inhibit the growth of giant salvinia at low concentrations
Protocol: The combined fractions were loaded on a pre-equilibrated open ODS column (60×600 mm). The ODS column was eluted successively with 30%, 55%, 75% and 100% MeOH to yield four fractions F1, F2, F3, and F4, respectively. […] NMR experiments were performed on a JEOL ECS-400 and a Bruker Avance 700 NMR instrument. NMR data were reported as δ (ppm) values and referenced to the solvent used. HRESIMS were acquired on an electrospray instrument (MDS Sciex Pulsar Qstar, Ontario, Canada). Octadecyl-functionalized silica gel, silica gel, Sephadex LH-20, and TLC plates were purchased from Aldrich Chemical Co. HPLC analysis was performed on a Hewlett Packard Series 1100 with a HP 1100 diode array detector using a Hypersil ODS column (150×4.6 mm, 5 μM, Supelco; flow rate, 1 mL/min; MeOH/H2O (v/v) linear gradient, 2:98-98:2 in 35 min). Preparative HPLC was performed with an Acuflow Series III pump connected with an Acutect 500 UV/VIS detector using an Econosil ODS column (250×22 mm, 10 μM, All tech). The total 27 healthy and untreated living plants of giant salvinia (in secondary growth stage, approximately 10 g in fresh weight each) were cultured and tested in plastic containers (14×15 cm, 0.68 L) in the NCPC Lab at RT. The […] treatments were as follows. Controls: 9 plants with three in each container (3 replications) were cultured with 150 mL of tap water; 0.01% salviniside II treatment: 9 plants with three in each container (3 replications) were sprayed with 150 mL 0.01% of salviniside II dissolved in tap water; and 0.1% salviniside II treatment: 9 plants with three in each container (3 replications) were sprayed with 150 mL 0.1% of salviniside II dissolved in tap water. […] By the end of two weeks, new growth biomass of plants in each treatment was measured. The biomass of new growth was a primary factor to measure the inhibition of each treatment on the target plant.

L. leucocephala = conditions: 100 mg/L; cited from earlier work
[2] = test system: red imported fire ant (Solenopsis invicta Buren) workers; assay: Contact toxicity assay, topical spray on fire ant workers, 7 h; format: in vivo; conditions: PROBIT
Protocol: (§1) Preparation of the fire ant extracts: (1) Acetone extract: 97 g (in fresh weight) of the red imported fire ant workers were extracted two times with acetone at RT (each 250 mL, 24 h). […] (2) Ethanol extract: 110 g (in fresh weight) of the whole worker bodies of the red imported fire ant (Solenopsis invicta Buren) (family Furmicidae) were extracted two times with 95% EtOH at RT (each 250 mL, 24 h). […] Both extracts were dissolved in water and then prepared as experimental solutions at the concentration of 0.1%, 1%, 5%, and 10%, respectively. […] The mixture was put under ultrasound for 30 min extraction. The fire ants were then removed and the extract was dried with anhydrous magnesium sulfate. 500 μL of the extract was transferred to NMR tube for detection. ^1H-NMR experiments were performed on a JEOL ECS 400 spectrometer, with spectroscopic data referenced to the solvent used. […] The ants in each beaker were topically sprayed with a total 1 mL of 0.1%, 1%, 5%, or 10% solutions of either acetone or ethanol extract, respectively. The control group was sprayed with 1 mL pure water. The beakers in all treatments were covered by cloth to prevent the escape of the fire ants. The surviving number of the fire ants in each treatment was counted by 1 h interval for 7 h. […] The ants in each beaker were topically sprayed with a total 1 mL of 0.1%, 1%, or 5% solutions of either formic or acetic acids, respectively. The control group was sprayed with 1 mL pure water. The beakers in all treatments were covered by cloth to prevent the escape of fire ants. The surviving number of the fire ants in each treatment was counted by 1 h interval for 7 h. […] The surviving number of the fire ants in each treatment was counted by 15 min interval for 90 min. […] The surviving number of the fire ants in each treatment was counted by 15 min interval for 90 min. […] The surviving number of the fire ants in each treatment was counted by 1 h interval for 7 h. […] The surviving number of the fire ants in each treatment was counted by 1 h interval for 2 h. […]

[3] = test system: red imported fire ant (Solenopsis invicta Buren) workers; conditions: for average mortality: 90 min
Protocol: as §1

[4] = test system: subterranean termite (Reticulitermes flavipes (Kollar)); conditions: for termite kill: during the first hour
Protocol: The mixture was put under ultrasound for 30 min extraction. The termites were then removed and the extract was dried with anhydrous magnesium sulfate. 500 μL of the extract was transferred to NMR tube for detection. ^1H-NMR experiments were performed on a JEOL ECS 400 spectrometer, with spectroscopic data referenced to the solvent used. […] The control group was sprayed with 1 mL pure water. The beakers in all treatments were covered by cloth to prevent the escape of termites. The surviving number of the termites in each treatment was counted by 1 h interval for 7 h.

[5] = test system: giant salvinia (Salvinia molesta)
Protocol: Plant growth and survival status were documented and photographed hourly for the first 5 h and then daily for seven days after the treatment.

[6] = test system: seedlings of rice cultivars; conditions: vs four species of Brassicaceae, Asteraceae, Fabaceae and five weed grass species of Poaceae; cited from earlier work

4″,6″-O-[3,5-dicarbonyl-8-hydroxy-2-(4′,5′-dihydroxy-phenyl)-1-benzofuran-2-yl]-D-glucopyranose [salviniside II]
new growth thereafter ([1]; 0.1%, eight months of observation): no new growth
growth of giant salvinia ([1]; 0.1%, within two weeks, lab at RT): totally inhibited
activity class against giant salvinia ([1]; isolates and subfractions of F3): active

NC(Cn1ccc(=O)c(O)c1)C(=O)O (stereo not shown) [Minosine]
inhibition on the producing plants (L. leucocephala): did not show any inhibition

CC(=O)O [acetic acid]
7 h LD50 [2]: 6.42%
7 h LD90 [2]: 9.96%

O=CO [formic acid]
7 h LD90 [2]: 5.09%
average mortality ([3]; 2.5%): more than 70%
average mortality ([3]; 5%): 100%
2 h LD90 ([3]; fumigation, PROBIT): 0.9%
impact on the termites ([4]; 0.1%): no impact
termites killed ([4]; 1%, 7 h): more than 40%
termite kill ([4]; 5%): killed all termites
termite kill ([4]; 10%): killed all termites
7 h LD90 ([4]; contact toxicity): 9.08%
growth inhibition ([5]; 0.01% concentration): still effectively inhibited the growth of giant salvinia
plants killed ([5]; 0.05% concentration, within 24 h): approximately 50%

C=C[C@]1(C)CC[C@@H]2C(=C[C@H]3OC(=O)[C@@]4(C)C(=O)CC[C@@]2(C)[C@@H]34)C1 [momilactone A]
effective concentration to inhibit rice seedlings relative to that for other species [6]: 100 times

C=C[C@]1(C)CC[C@@H]2C(=C[C@H]3OC(=O)[C@]4(C)[C@H]3[C@]23CC[C@@]4(O)OC3)C1 [momilactone B]
effective concentration to inhibit rice seedlings relative to that for other species [6]: 333 times
